The numbers were not newly measured in patent US8017623B2 (Trinity Laboratories, Inc., priority 2008, dated 2011), which cites them from elsewhere.

Where a name gives a salt, the structure may show the parent alone. Read-outs that look alike come from different tables or passages of the source.

For data set [1] the following is noted: for peak plasma dextromethorphan concentration (mean) / peak plasma dextromethorphan concentrations (range): chronic oral dosing of 120 mg daily, divided doses.
The next data set concerns females. The note with it: for mean plasma bromide concentration at the end of the treatment: females, three menstrual cycles.
The conditions of data set [2]: rat, normal.
The next data set concerns thyroid. The note with it: rats, normal chloride intake.
Another data set deals with thyroid gland. The note with it: rats fed diets containing 4800 or 19200 ppm; from 3 days, constant over 12 weeks.

As for `COc1ccc2c(c1)[C@]13CCCC[C@@H]1[C@H](C2)N(C)CC3` [Dextromethorphan Hydrobromide], the solubility is, setting by setting: (at 20° C.) 1.5%; (at 85° C.) 25%; (below 20° C.) “sparingly soluble”.

On to `COc1ccc2c(c1)[C@]13CCCC[C@@H]1[C@H](C2)N(C)CC3` [Dextromethorphan, 3-methoxy-17-methyl-9a, 13a, 14 a-morphinan], for which, in data set [1] (24 hour period), the conjugated dextrorphan excreted result is recorded as “up to 30%” and the “dose excreted unchanged in the urine” value is given as “less than 2.5%”. For the same compound, in data set [1] (extensive metabolizers), the “peak plasma dextromethorphan concentration (mean)” value is listed as 2.4 ng/mL and the “peak plasma dextromethorphan concentrations (range)” value is 0.5 to 5.9 ng/mL. For the same compound, in data set [1] (poor metabolizers), the “peak plasma dextromethorphan concentration (mean)” value was 207 ng/mL and the “peak plasma dextromethorphan concentrations (range)” value was 182 to 231 ng/mL. Further, in data set [1] (single 20 mg oral dose), the “peak concentration in serum” value is 1.8 ng/mL and the “time of peak serum concentration” value is 2.5 h.

`Br` [bromide]: in the data set on females (females receiving 9 mg Br/kg/day), the “quantitative analysis of the electroencephalogram (EEG)” value was “only a marginal effect”. In addition, the “serum thyroxine, free thyroxine, triiodothyronine, thyrotropine and thyroxine-binding globulin” value in the data set on females (females, 0, 4 and 9 mg Br/kg/day) is “In none of the three groups were significant changes observed”. In addition, the entries for the “mean plasma bromide concentration at the end of the treatment” value in the data set with females (4 mg Br/kg/day) and in the data set with females (9 mg Br/kg/day) were 3.22 mmol/L and 7.99 mmol/L, respectively. Besides, the half-life in data set [2] was 72 h. Moreover, the “NOAEL based on effects on the thyroid” value with thyroid is 240 ppm bromide; with thyroid (equivalent dose) it was 12 mg bromide/kg bw/day.

Consider `[Br-].[Na+]` [sodium bromide], for which the thyroxine concentrations result in the data set with thyroid gland was “significantly decreased”. The “medical history, physical examination, haematology, clinical chemistry and urine analyses” value with healthy volunteers (4 or 9 mg Br/kg/day, except for incidental nausea) is recorded as “no changes were observed”. The “serum thyroxine and triiodothyronine at the end of the study compared to pre-administration values” in the data set with healthy volunteers (females receiving 9 mg Br/kg/day, concentrations remained within normal limits) was “significant increase”. For the same compound, the “mean plasma bromide concentration at the end of treatment” value in the data set with healthy volunteers (females, 4 mg Br/kg/day oral, three full cycles) is 3.05 mmol/L; in the data set on healthy volunteers (females, 9 mg Br/kg/day oral, three full cycles), 4.93 mmol/L; with healthy volunteers (males, 4 mg Br/kg/day oral, 12 weeks), 2.14 mmol/L; with healthy volunteers (males, 9 mg Br/kg/day oral, 12 weeks) it was 4.30 mmol/L. For the same compound, the effect on reproduction result was “no effects on reproduction were observed” with rats (1200 ppm); “fertility and viability of the offspring were reduced” in the data set with rats (4800 ppm); “complete infertility” in the data set with rats (19200 ppm (highest dose level)). In addition, the “NOAEL based on effects on the thyroid” value with thyroid was 300 ppm sodium bromide.
